Test results published in patent US20260091147A1, “METHOD FOR DETECTING INNATE IMMUNE ACTION IN VIVO USING GPR84-PET” (The Board of Trustees of the Leland Standford Junior …, priority 2023, published 2026).

Experiments:
[1] = Dynamic 60 min PET/CT of healthy mice, whole-brain time activity curve; type: in vivo, mouse; settings: healthy mice
Text: A transmission scan was acquired to correct for attenuation during image reconstruction. Following PET imaging, mice were transferred to a SOFIE GNEXT PET/CT for CT acquisition. PET/CT data were co-registered and analyzed using Inveon Research Workplace software to generate images and quantify radiotracer uptake in regions of interest (ROIs). A 3D ROI was manually defined for the whole brain using CT data as anatomical reference, then applied to the full dynamic data set to generate a time activity curve (TAC).
(§1) The count densities were averaged for all volumes of interest at each time point to obtain a time-activity curve (TAC). The TACs were normalized to injected dose, as measured by a CRC-15 PET dose calibrator (Capintec Inc.), and expressed as % injected dose per gram (% ID/g), assuming 1 g/mL. CT was performed in GNEXT depth of interaction (DOI) dual-layer detector system. Scintica VivoQuant software was used to visualize radiotracer uptake and define the 3D volumes of interest. 3D maximum intensity projection (MIP) PET/CT images were created using IRW software.
On days 15-16 after EAE induction, mice were catheterized and placed on the 4-mouse scanning bed of the Sofie GNEXT PET/CT scanner.

GPR84 [2] = target: T1, GPR84 (Mus musculus, UniProt Q8CIM5); test: Dynamic PET/CT of brain in LPS-induced systemic inflammation vs saline, with or without GLPG1205 block; type: in vivo; settings: LPS 5 mg/kg
T1 construct: tissue Jackson Laboratories; host or cells: female C57BL/6J mice (LPS, saline, EAE or naive): brain, spinal cord and peripheral organs
Method: (§2) To determine KD of GLPG38, a competitive binding assay was performed using a membrane preparation from cells expressing GPR84-Gi in addition to [^3H]G9543, a known GPR84 antagonist. [^11C]GLPG38 was then radiosynthesized via [^11C]methylation of desmethyl precursor using [^11C]methyl iodide. […] Dynamic 60 min PET/CT imaging was performed 24 hr following LPS-administration using [^11C]GLPG38. Subsequently, mice were perfused with PBS to remove blood, and radioactive signal was assessed in CNS and peripheral tissues via gamma counting. Ex vivo autoradiography of sagittal mouse brain sections was conducted to obtain high resolution images of [^11C]GLPG38 binding. To investigate alterations in GPR84 mRNA expression, quantitative polymerase-chain reaction was performed using mouse brain tissue and human monocyte-derived macrophage cells stimulated with LPS 24 hr prior to RNA extraction.
as §1
A range of doses (0.65, 0.75, and 0.90 mg/kg) of GLPG1205 were used to investigate whether the blocking was dose-dependent. […] GLPG1205 was injected intra-venously 10 min prior to radiotracer injection (n=4).

GPR84 [3] = target: T1, GPR84; test: Ex vivo biodistribution (gamma counting) of GPR84 tracer in LPS- vs saline-treated mice; settings: 20 min post injection
Method: FIGS. 11A-11B show ex vivo biodistribution and autoradiography. […] At 20 min postinjection, animals were perfused with saline and tissues were collected, weighed, and gamma-counted. […] Statistical analysis was performed using “Unpaired t test with Welch correction”, *=P<0.05. […] Cb=cerebellum, Ctx=cortex, Str=striatum, H=hippocampus, Mb=midbrain, Ob=olfactory bulb, and BS=brain stem.
as §2

[4] = Method: In vivo stability assay. […] Mice were perfused with PBS buffer (20 mL) under deep anesthesia (5 min, 20 min). The whole brain and liver lobe were removed from mouse place in two separate […] microcentrifuge tubes containing 500 μL acetonitrile, homogenized sample and placed on ice. The well-homogenized samples were transferred to two 1.5 mL microcentrifuge tubes, centrifuged at 9,400 g for 4 min at room temperature. Supernatants were transferred into gamma counting tubes; the pellets were transferred into separate tubes. All supernatants and pellets were counted using gamma counter to measure extraction efficiency. Each of the supernatant (150-200 μL) was transferred into HPLC vials with the inserts and injected into HPLC for radio-metabolic analysis.
At 5 and 20 min post-tracer injection, the analysis of the whole brain and liver was performed using analytical HPLC to assess the presence of potential radiometabolites.

GPR84 [5] = target: T1, GPR84; test: Ex vivo autoradiography of brain sections from LPS-treated mice; type: in vivo; settings: GLPG1205 5 mg/kg ([11C]GLPG38) or 1 mg/kg (11C-MGX-10S)
Method: (§3) To determine KD of GLPG38, a competitive binding assay was performed using a membrane preparation from cells expressing GPR84-Gi in addition to [^3H]G9543, a known GPR84 antagonist. [^11C]GLPG38 was then radiosynthesized via [^11C]methylation of desmethyl precursor using [^11C]methyl iodide. Binding specificity of [^11C]GLPG38 was assessed using human GPR84-stably-expressing human embryonic kidney cells (HEK-293) versus control HEK-293 cells. For animal studies, sepsis was induced in female C57BL/6J mice via intraperitoneal injection of lipopolysaccharide (LPS, 10 mg/kg); vehicle-treated mice were injected with saline alone. Dynamic 60 min PET/CT imaging was performed 24 hr following LPS-administration using [^11C]GLPG38. Subsequently, mice were perfused with PBS to remove blood, and radioactive signal was assessed in CNS and peripheral tissues via gamma counting. Ex vivo autoradiography of sagittal mouse brain sections was conducted to obtain high resolution images of [^11C]GLPG38 binding. To investigate alterations in GPR84 mRNA expression, quantitative polymerase-chain reaction was performed using mouse brain tissue and human monocyte-derived macrophage cells stimulated with LPS 24 hr prior to RNA extraction.
Ex vivo Audoradiography Confirms ^11C-MGX-10S Specificity.

[6] = target: T2, postsynaptic dopamine D2 receptors (Rattus norvegicus, UniProt P61169); settings: healthy rodents; cited from earlier work
T2 construct: host or cells: healthy rodent brain in vivo

[7] = target: T3, purinergic receptor subtype 7 (P2×7) (Mus musculus, UniProt Q9Z1M0); settings: LPS 5 mg/kg; cited from earlier work
T3 construct: host or cells: mouse brain in vivo, LPS 5 mg/kg
T3 sequence (Q9Z1M0 1-595): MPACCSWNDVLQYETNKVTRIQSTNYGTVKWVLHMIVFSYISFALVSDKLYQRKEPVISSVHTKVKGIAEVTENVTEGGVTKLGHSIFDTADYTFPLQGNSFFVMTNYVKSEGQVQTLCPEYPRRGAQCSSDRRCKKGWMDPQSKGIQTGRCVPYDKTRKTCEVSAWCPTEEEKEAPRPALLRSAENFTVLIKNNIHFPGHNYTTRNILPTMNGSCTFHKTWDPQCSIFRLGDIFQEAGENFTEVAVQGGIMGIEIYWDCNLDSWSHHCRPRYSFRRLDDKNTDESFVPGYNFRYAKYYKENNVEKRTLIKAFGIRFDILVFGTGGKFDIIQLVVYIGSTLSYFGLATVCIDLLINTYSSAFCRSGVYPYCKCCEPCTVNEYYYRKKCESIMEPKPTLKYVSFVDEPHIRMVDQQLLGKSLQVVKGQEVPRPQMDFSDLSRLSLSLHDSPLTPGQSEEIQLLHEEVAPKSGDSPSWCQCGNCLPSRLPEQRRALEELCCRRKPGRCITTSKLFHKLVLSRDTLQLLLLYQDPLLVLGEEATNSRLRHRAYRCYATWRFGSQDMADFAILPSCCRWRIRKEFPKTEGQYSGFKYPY

CSF1R = target: T4, CSF1R (Mus musculus, UniProt P09581); settings: LPS 10 mg/kg; cited from earlier work
T4 construct: host or cells: mouse brain in vivo, LPS 10 mg/kg
T4 sequence (P09581 20-977): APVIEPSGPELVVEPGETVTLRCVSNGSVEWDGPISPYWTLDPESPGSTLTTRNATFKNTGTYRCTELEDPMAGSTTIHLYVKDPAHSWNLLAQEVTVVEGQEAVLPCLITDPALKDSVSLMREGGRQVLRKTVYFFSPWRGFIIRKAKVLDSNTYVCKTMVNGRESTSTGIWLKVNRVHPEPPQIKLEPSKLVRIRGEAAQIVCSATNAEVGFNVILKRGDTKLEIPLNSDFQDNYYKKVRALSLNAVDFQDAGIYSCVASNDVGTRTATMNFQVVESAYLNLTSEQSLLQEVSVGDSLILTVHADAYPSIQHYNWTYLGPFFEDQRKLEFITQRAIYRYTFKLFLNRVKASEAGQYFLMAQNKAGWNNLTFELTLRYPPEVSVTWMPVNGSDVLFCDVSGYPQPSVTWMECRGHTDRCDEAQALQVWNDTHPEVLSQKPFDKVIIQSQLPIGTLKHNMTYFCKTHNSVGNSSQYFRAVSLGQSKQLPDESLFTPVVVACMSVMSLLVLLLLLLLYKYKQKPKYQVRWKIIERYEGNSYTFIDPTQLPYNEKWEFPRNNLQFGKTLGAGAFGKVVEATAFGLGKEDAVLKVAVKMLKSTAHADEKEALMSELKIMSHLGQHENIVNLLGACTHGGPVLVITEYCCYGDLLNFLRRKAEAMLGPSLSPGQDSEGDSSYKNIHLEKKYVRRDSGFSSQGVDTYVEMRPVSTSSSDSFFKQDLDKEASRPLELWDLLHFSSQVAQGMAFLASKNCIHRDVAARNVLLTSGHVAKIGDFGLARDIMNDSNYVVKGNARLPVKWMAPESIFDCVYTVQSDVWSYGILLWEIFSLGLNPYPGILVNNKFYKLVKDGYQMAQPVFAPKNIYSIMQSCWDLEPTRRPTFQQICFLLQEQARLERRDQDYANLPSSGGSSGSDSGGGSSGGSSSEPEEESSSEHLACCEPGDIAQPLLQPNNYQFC

[8] = target: T5, synaptic vesicle glycoprotein 2A receptor (Mus musculus, UniProt Q9JIS5); settings: cited from earlier work
T5 construct: host or cells: healthy mouse brain in vivo

[9] = target: human GPR84-Gαi2 fusion protein (Homo sapiens, UniProt Q9NQS5); test: [3H]G9543 competition binding assay, membranes from Flp-In TREx 293 cells; settings: competition with [3H]G9543; read-out: Kd (affinity for GPR84)
Method: as §3, with “Binding specificity of [^11C]GLPG38 was assessed using human GPR84-stably-expressing human embryonic kidney cells (HEK-293) versus control HEK-293 cells.” left out

T1 sequence (Q8CIM5 whole entry): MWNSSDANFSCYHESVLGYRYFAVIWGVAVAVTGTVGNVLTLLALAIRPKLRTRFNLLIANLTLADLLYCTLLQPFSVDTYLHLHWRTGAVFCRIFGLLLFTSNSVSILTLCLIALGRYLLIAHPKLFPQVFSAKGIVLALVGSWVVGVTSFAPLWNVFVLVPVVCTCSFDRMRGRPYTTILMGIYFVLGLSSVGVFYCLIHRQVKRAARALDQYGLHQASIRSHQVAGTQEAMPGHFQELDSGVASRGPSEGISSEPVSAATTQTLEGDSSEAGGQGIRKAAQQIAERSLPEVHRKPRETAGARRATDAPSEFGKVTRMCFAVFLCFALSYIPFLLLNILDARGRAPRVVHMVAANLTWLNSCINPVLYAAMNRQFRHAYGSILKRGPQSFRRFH
T2 sequence (P61169 whole entry): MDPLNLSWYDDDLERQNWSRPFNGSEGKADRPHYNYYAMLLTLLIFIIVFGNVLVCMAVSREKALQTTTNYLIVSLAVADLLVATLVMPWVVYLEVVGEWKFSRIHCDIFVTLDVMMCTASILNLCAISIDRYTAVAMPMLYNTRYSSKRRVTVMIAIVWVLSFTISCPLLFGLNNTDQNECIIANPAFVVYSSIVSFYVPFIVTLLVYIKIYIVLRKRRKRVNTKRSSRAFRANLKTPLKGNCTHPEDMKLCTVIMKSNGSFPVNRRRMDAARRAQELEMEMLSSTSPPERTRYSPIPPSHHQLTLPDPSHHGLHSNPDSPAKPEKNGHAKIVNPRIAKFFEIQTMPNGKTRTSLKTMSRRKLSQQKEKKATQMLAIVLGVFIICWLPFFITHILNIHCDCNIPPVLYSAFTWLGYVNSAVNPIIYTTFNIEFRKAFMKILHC
T5 sequence (Q9JIS5 whole entry): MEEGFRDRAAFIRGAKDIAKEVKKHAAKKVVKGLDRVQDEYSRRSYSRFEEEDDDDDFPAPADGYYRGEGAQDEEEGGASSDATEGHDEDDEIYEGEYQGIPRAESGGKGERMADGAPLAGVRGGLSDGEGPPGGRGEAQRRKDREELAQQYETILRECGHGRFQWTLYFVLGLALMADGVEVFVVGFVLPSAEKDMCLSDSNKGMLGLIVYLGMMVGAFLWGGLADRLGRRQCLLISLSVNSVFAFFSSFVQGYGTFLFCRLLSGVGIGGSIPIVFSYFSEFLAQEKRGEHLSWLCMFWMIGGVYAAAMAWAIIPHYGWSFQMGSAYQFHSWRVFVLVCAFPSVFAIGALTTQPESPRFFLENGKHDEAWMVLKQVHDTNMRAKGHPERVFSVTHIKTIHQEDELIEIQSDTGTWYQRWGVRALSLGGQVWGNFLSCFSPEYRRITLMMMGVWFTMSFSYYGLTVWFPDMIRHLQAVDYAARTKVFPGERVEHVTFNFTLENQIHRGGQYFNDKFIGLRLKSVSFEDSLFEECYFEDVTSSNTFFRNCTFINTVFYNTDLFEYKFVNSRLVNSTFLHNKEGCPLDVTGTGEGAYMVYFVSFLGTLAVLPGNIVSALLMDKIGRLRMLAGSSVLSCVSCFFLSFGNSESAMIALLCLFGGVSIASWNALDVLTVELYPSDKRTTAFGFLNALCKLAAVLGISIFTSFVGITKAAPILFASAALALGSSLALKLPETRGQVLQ
Chain of human GPR84-Gαi2 fusion protein (Q9NQS5 whole entry, the tested form may be a part): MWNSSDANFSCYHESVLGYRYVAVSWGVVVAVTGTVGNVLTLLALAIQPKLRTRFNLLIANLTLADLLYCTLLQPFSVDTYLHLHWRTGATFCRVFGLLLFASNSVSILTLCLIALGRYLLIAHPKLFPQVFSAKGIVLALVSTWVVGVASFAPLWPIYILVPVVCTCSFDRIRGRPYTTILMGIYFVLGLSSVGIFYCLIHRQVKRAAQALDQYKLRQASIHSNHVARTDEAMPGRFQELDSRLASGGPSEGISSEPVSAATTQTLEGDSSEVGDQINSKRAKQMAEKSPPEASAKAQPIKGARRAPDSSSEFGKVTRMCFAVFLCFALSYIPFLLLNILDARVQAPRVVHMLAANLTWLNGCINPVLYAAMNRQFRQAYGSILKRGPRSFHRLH

[11CH3]Oc1ccc2c(c1)CCn1c-2cc(OC[C@@H]2COCCO2)nc1=O [^11C-MGX-10S]
time of peak brain uptake [1]: ≤ 22.5 s
whole-brain uptake after washout, end of 60 min scan [1]: 1.89±0.35 % ID/g
peak whole-brain uptake ([1]; 60 min dynamic scan): 5.90±0.89 % ID/g
reduction of brain PET signal in LPS mice by GLPG1205 at end of scan (GPR84 [2]; GLPG1205 0.65 mg/kg i.v. 10 min before tracer): 38.50%
increase in whole-brain radiotracer uptake, LPS vs saline, 30-60 min integration (GPR84 [2]): approximately 39.27%
higher brain accumulation in LPS vs saline-treated mice at end of scan (GPR84 [2]; 60 min dynamic PET): 42.46%
adipose tissue uptake, saline-treated mice (GPR84 [3]): 0.63±0.15 % ID/g
kidney uptake, saline-treated mice (GPR84 [3]): 5.32±3.01 % ID/gram
liver uptake, saline-treated mice (GPR84 [3]): 4.51±0.15 % ID/gram
brain uptake, saline-treated mice (GPR84 [3]; perfused): 0.45±0.06 % ID/g
adipose tissue uptake, LPS-treated mice (GPR84 [3]; LPS 5 mg/kg): 1.16±0.50 % ID/g
kidney uptake, LPS-treated mice (GPR84 [3]; LPS 5 mg/kg): 8.73±3.18 % ID/gram
liver uptake, LPS-treated mice (GPR84 [3]; LPS 5 mg/kg): 7.08±1.27 % ID/gram
brain uptake, LPS-treated mice (GPR84 [3]; LPS 5 mg/kg, perfused): 0.84±0.21 % ID/gram
radiometabolite M1 in brain at 20 min post injection ([4]; HPLC): 3%
radiometabolite M1 in liver at 20 min post injection ([4]; HPLC): 10%
intact radiotracer in liver at 20 min post injection ([4]; LPS-treated mice): 90%
intact radiotracer in liver, initial (5 min) ([4]; LPS-treated mice): 100%
intact radiotracer in brain at 5 min post injection ([4]; LPS-treated mice, n=3): 100%
intact radiotracer in brain at 20 min post injection ([4]; LPS-treated mice, n=3): 97%
tracer binding in LPS brain sections after pre-blocking with GLPG1205 (GPR84 [5]): dramatic reduction

CCN1CCC[C@H]1CNC(=O)c1c(O)c(Cl)cc(Cl)c1O[11CH3] (racemic) [^11C-Raclopride]
Brain 5 min/60 min ratio [6]: ~2
time of maximum brain uptake [6]: 5 min

[11CH3]N1C(=O)CC[C@H]1C(=O)NCc1cccc(C(F)(F)F)c1Cl [^11C-GSK1482160]
fold higher binding in brain, LPS vs saline-treated mice [7]: 3.2 fold

CN1CCN(c2ccc(NC(=O)c3ccc(C#N)o3)c(N3CCCCC3)c2)CC1 [^11C-CPPC, [11C]5-Cyano-N-(4-(4-Methylpiperazin-1-YI)-2-(Piperidin-1-YI)Phenyl)Furan-2-Carboxamide]
higher binding in mouse brain, LPS vs control animal (CSF1R): 55%

[11CH3]c1cnccc1CN1C[C@@H](c2cc(F)c(F)c(F)c2)CC1=O [^11C-UCBJ]
Brain 15 min/90 min ratio ([8]; healthy mouse brain): ~3
time of maximum brain uptake ([8]; healthy mouse): 15 min

COc1cc2c(cc1C)-c1c(C)c(OC[C@@H]3COCCO3)cc(=O)n1CC2 [GLPG38]
Kd [9]: 11.8 nM
